{"source": "paper PMC8905628", "about": "“Integrin α6-Targeted Molecular Imaging of Central Nervous System Leukemia in Mice” (Frontiers in Bioengineering and Biotechnology, 2022)", "key": {"[1]": {"system": "NALM6-luciferase tumor-bearing mice", "experiment": "T1-weighted MR imaging of NALM6-luciferase tumor-bearing mice (CNS-L)", "type": "in vivo, NOD/SCID mice", "settings": "0.03 mmol of Gd/kg, tail vein, 3.0 T, baseline and 5, 10, 15 min post-injection", "procedure": "The human ALL cell lines including NALM6, Reh, Jurkat, and CCRF-CEM were purchased from the American Type Culture Collection (ATCC) and cultured in RPMI 1640 medium supplemented with 10% fetal bovine serum and 0.5% penicillin–streptomycin and incubated at 37 °C/5%CO2. To facilitate tumor monitoring, luminescent cells NALM6-luciferase were generated by stable transfection with luciferase. Female NOD/SCID mice (6 weeks old) were purchased from Vita River, Charles River Laboratories, China (Beijing, China). NOD/SCID mice were injected via the tail vein with 1 × 10^6 luciferased cells suspended in 150 µl of sterile phosphate-buffered saline (PBS). Bioluminescence imaging was applied to monitor the leukemic burden. All animal experiments were approved by the Institutional Animal Care and Use Committee (IACUC) at the Sun Yat-sen University Cancer Center (IACUC approval number L102012020070M), and the welfare and treatment of the laboratory animals were in accordance with the corresponding animal management regulations.\nBioluminescence confirmed CNS-L mice were used for MR and PET imaging studies in the next few days after the NIRF imaging. MR imaging was performed using a Philips Achieva 3.0 T system. Mice were anesthetized with 2,2,2-Tribromoethanol ([…]), fixed on the holder, and placed into the mouse-imaging coil. […]"}, "[2]": {"system": "Human ITGA6 & ITGB4 Heterodimer Protein", "experiment": "Microscale thermophoresis affinity of S5 peptides", "type": "binding", "settings": "cyclic vs straight S5 peptide; preliminary experiments, Supplementary Figures S2A, S2B; MST, Monolith NT.115, protein 100 nM, peptide from 100 uM diluted 1:1, PBST, 80 % LED/excitation power, medium MST power", "procedure": "The affinity of cyclic S5 peptide, straight S5 peptide, NOTA-S5 and Gd-S5 with Human ITGA6 & ITGB4 Heterodimer Protein (Manufactured by Sino Biological Catalog Number: CT069-H2508H) was determined by microscale thermophoresis (MST). Firstly, 0.05% PBST was prepared, 25ul of Tween 20 was added to 50ml of PBS and filtered through 0.22um filter paper. Then dilute the peptide: dissolve the above 4 peptides into 1mM storage solution concentration. Take 20 ul of peptide and mix with 80 ul of PBST and dilute to a working concentration of […]. Next dilute the dye: Take 2 µL of RED-tris-NTA II dye (Manufactured by NanoTemper Cat# MO-L018 5 µM) and mix with 98 µl of PBST to obtain 100 µL of dye (100 nM). Finally, 100 ul of Human ITGA6 & ITGB4 Heterodimer Protein (400 nM) was mixed with 100 ul of dye (100 nM) and incubated at room temperature for 30 min, at which time the protein concentration was 200 nM. 10 ul of peptide (200 uM) was added to the PCR tube, and 16 tubes were diluted 1:1 with PBST. Then take 3 ul of protein/dye mixture in the PCR tube, add 3 ul of […] concentrations of peptide and mix well. The concentration of protein was 100 nM and the concentration of peptide in the first tube was 100 uM. […] Kd was calculated by Kd fitting mode using MO.Affinity Analysis."}, "NALM6 cells": {"system": "NALM6 cells", "experiment": "Immunofluorescence / confocal microscopy of S5 peptide in NALM6 cells", "type": "cell-based, human", "procedure": "Approximately 1 × 10^6 NALM6 cells were seeded on cover slips in 24-well plates and incubated for 24 h. Subsequently, the 80 μM S5 peptide was added into the culture medium and incubated with cells for 4 h, while the blank control group was added to the same volume of RPMI 1640 medium. After that, cells of each group were washed with PBS five times, fixed with 4% paraformaldehyde for 15 min, permeabilized with 0.1% Triton X-100 (Sigma-Aldrich, Germany), and blocked with 1% BSA for 30 min. The cover slips were incubated with the anti-integrin α6 antibody (Abcam, ab181551) at 4°C overnight, followed by incubation with streptavidin-Cy3 (Thermo Fisher 434315, United States) and the goat anti-mouse Alexa Fluor 488 secondary antibody (Abcam, ab150113) for 1 h at room temperature in a dark chamber. Finally, cover slips were incubated with 1 μg/ml DAPI and mounted with slides with ProLong gold antifade (Invitrogen P26930, United States). Fluorescence images were visualized and captured under a confocal microscopy confocal laser-scanning system (Zeiss, LSM980, Germany) at 40× and 100× magnification. Co-localization was analyzed by ImageJ (http://rsbweb.nih.gov/ij/) and the co-localization finder plug-in."}, "integrin α6": {"system": "integrin α6", "settings": "cited from earlier work", "from_the_text": "We further translated the RWY peptide into an integrin α6-targeted PET probe and MRI probe that have been successfully applied for tumor imaging of the integrin α6 expression ([Feng GK et al., 2019]; [Xiao et al., 2019]; [Zhang Y et al., 2020]; [Gao et al., 2020]). Recently, our group improved the characteristics of the peptide by alanine scanning and obtained a novel integrin α6-targeting peptide […] (dubbed S5) which ..."}}, "data": [{"molecule": "O=C([O-])CN(CCN(CC(=O)[O-])CC(=O)O)CCN(CC(=O)[O-])CC(=O)O.[Gd+3]", "note": "[Gd-DTPA, gadolinium-diethylenetriamine pentaacetic acid]", "values": [{"measurement": "MR enhancement signals", "setting": "[1]", "result": "did not show obvious enhancement signals"}]}, {"molecule": "CRWYDANAC [S5]", "values": [{"measurement": "binding of cyclic and straight peptides compared", "setting": "[2]", "result": "equivalent"}, {"measurement": "cellular uptake of the S5 peptide", "setting": "NALM6 cells; 80 μM S5 peptide, 4 h, green fluorescence", "result": "entered the cytoplasm through cytocytosis after binding to the cell membrane"}, {"measurement": "cellular localization of the S5 peptide", "setting": "NALM6 cells; 80 μM S5 peptide, 4 h of co-culturing, fluorescence microscopy", "result": "enriched and localized at the nuclei of NALM6 cells"}, {"measurement": "location of integrin α6 and the S5 peptide confirmed by confocal microscopy (Discussion)", "setting": "NALM6 cells; NALM6 cells, as summarised in Discussion", "result": "dominating membrane location"}, {"measurement": "specificity and affinity to integrin α6", "setting": "integrin α6; vs RWY, obtained by alanine scanning, ref Mei et al., 2020, Lin et al., 2021", "result": "higher specificity and affinity"}]}, {"molecule": "CRWYDENAC [reference compound]", "values": [{"measurement": "binding to integrin α6", "setting": "integrin α6; identified by phage display technology, ref Feng G et al., 2019", "result": "could bind specifically to integrin α6"}]}]}
